Calls of active or inactive are those of the source. No cut-off for these calls is given here.

The first assay deals with TA3. The experiment in a line: Antitumor activity against mouse TA3 cells assessed as growth inhibition. Format: functional.
In the case of `N[C@@H](CSC(c1ccccc1)(c1ccccc1)c1ccccc1)C(=O)O` [S-TRITYL-L-CYSTEINE], the ID50 was 6.3 ×10⁻⁷ M.

Turning to `CC(=O)N1[C@@H](c2ccc(C)cc2)SC[C@H]1C(=O)CCl`, the ID50 is 3.2 ×10⁻⁵ M.

The next assay has as its system TA3. The experiment in a line: Antitumor activity against mouse TA3 cells assessed as growth inhibition at 10^-4 M. The class given is functional, cell-based.
`Cc1ccc(C2NC(C(=O)O)C(C)(C)S2)cc1` (centres undefined): the “growth inhibition (GI)” value is “inactive”.

In the case of `CC(=O)N1C(c2ccc(C)cc2)SC(C)(C)C1C(=O)O` (centres undefined), the “growth inhibition (GI)” value is “inactive”.

For `CC(=O)N1[C@@H](c2ccc(C)cc2)SC[C@H]1C(=O)O`, the “growth inhibition (GI)” value was “inactive”.

In the case of `CC(=O)N1[C@@H](c2ccc(C)cc2)SC[C@H]1C(=O)C=[N+]=[N-]`, the “growth inhibition (GI)” value is “inactive”.

For another assay, the system named is TA3. The experiment in a line: Induction of growth in mouse TA3 cell at 10^-4 M. The class given is functional, cell-based.
With `Cc1ccc([C@H]2SC[C@@H](C(=O)O)N2C(=O)C(F)(F)F)cc1`, the outcome was inactive.

For `CC(=O)N1[C@@H](c2ccc(C)cc2)SC[C@H]1C(=O)O`, the outcome was inactive.

For `Cc1ccc([C@@H]2N[C@H](C(=O)O)CS2)cc1`, the outcome was Active.

These data come from ChEMBL document CHEMBL3272015, “Cysteine derivatives with reactive groups as potential antitumor agents” (1976).
